Laboratory results taken from the supplement of paper PMC5908809.

Tests used:
[1] = system: normal NK cells expanded with K562-aAPC; assay: drug sensitivity score (DSS) (DSS units); higher = more sensitive; extreme values may be limits of the assay; conditions: 72 h; IL-2 2.5 ng/mL
Procedure: (§1)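 Drug sensitivity and resistance testing on K562-aAPC-expanded normal NK cells: 5 concentrations (10-fold steps over a 10,000-fold range), 72 h at 37 °C, viability by CellTiter-Glo normalised to DMSO and benzethonium chloride controls; DSS from the fitted curve.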

[2] = system: normal primary NK cells, pool 1 (3 donors), resting (IL-2 0 ng/mL); assay: percent inhibition of viability; higher = more inhibition; conditions: 72 h
[3] = system: normal primary NK cells, pool 1 (3 donors) (IL-2 2.5 ng/mL); assay: as above; conditions: 72 h
KAI3 (IL-2 2.5 ng/mL) [4] = assay: as above; conditions: 72 h
YT (IL-2 2.5 ng/mL) [5] = assay: as above; conditions: 72 h
NKL (IL-2 2.5 ng/mL) [6] = assay: as above; conditions: 72 h
NK-92 (IL-2 2.5 ng/mL) [7] = assay: as above; conditions: 72 h
DERL-7 (IL-2 2.5 ng/mL) [8] = assay: as above; conditions: 72 h
[9] = system: normal primary NK cells, pool 2 (3 donors) (IL-2 2.5 ng/mL); assay: as above; conditions: 72 h
[10] = system: normal primary NK cells, pool 3 (3 donors) (IL-2 2.5 ng/mL); assay: as above; conditions: 72 h
NK-YS (IL-2 2.5 ng/mL) [11] = assay: as above; conditions: 72 h
SNK-6 (IL-2 2.5 ng/mL) [12] = assay: as above; conditions: 72 h
KHYG-1 (IL-2 2.5 ng/mL) [13] = assay: as above; conditions: 72 h
IMC-1 (IL-2 20 ng/mL) [14] = assay: as above; conditions: 72 h
[15] = system: normal NK cells expanded with K562-aAPC; assay: as above; conditions: 72 h, IL-2 2.5 ng/mL
Procedure: as §1

[16] = system: normal primary NK cells, pool 1 (3 donors), resting (IL-2 0 ng/mL); assay: drug sensitivity score (DSS) (DSS units); higher = more sensitive; extreme values may be limits of the assay; conditions: 72 h
[17] = system: normal primary NK cells, pool 1 (3 donors) (IL-2 2.5 ng/mL); assay: as above; conditions: 72 h
KAI3 (IL-2 2.5 ng/mL) [18] = assay: as above; conditions: 72 h
YT (IL-2 2.5 ng/mL) [19] = assay: as above; conditions: 72 h
NKL (IL-2 2.5 ng/mL) [20] = assay: as above; conditions: 72 h
NK-92 (IL-2 2.5 ng/mL) [21] = assay: as above; conditions: 72 h
DERL-7 (IL-2 2.5 ng/mL) [22] = assay: as above; conditions: 72 h
[23] = system: normal primary NK cells, pool 2 (3 donors) (IL-2 2.5 ng/mL); assay: as above; conditions: 72 h
[24] = system: normal primary NK cells, pool 3 (3 donors) (IL-2 2.5 ng/mL); assay: as above; conditions: 72 h
NK-YS (IL-2 2.5 ng/mL) [25] = assay: as above; conditions: 72 h
SNK-6 (IL-2 2.5 ng/mL) [26] = assay: as above; conditions: 72 h
KHYG-1 (IL-2 2.5 ng/mL) [27] = assay: as above; conditions: 72 h
IMC-1 (IL-2 20 ng/mL) [28] = assay: as above; conditions: 72 h

Nc1ncnc2c1nc(Cl)n2[C@@H]1O[C@H](CO)[C@@H](O)[C@H]1O [8-chloro-adenosine] (max concentration tested 50000 nM)
Conditions	drug sensitivity score
DERL-7 (IL-2 2.5 ng/mL) [22]	22.6
IMC-1 (IL-2 20 ng/mL) [28]	2.97
KAI3 (IL-2 2.5 ng/mL) [18]	21.9
KHYG-1 (IL-2 2.5 ng/mL) [27]	14
NK-92 (IL-2 2.5 ng/mL) [21]	9.34
NK-YS (IL-2 2.5 ng/mL) [25]	16.3
NKL (IL-2 2.5 ng/mL) [20]	9.19
SNK-6 (IL-2 2.5 ng/mL) [26]	23.8
YT (IL-2 2.5 ng/mL) [19]	12.5
[1]	8.27
[16]	8.97
[17]	8.37
[23]	7.63
[24]	5.7

percent inhibition of viability [%]
Conditions	5 nM	50 nM	500 nM	5000 nM	50000 nM
DERL-7 (IL-2 2.5 ng/mL) [8]	-0.76	-2.87	38.2	96.9	101
IMC-1 (IL-2 20 ng/mL) [14]	-4.61	-4.66	-2.73	-11.7	66.7
KAI3 (IL-2 2.5 ng/mL) [4]	-13.1	-12.4	38.3	86.7	92.9
KHYG-1 (IL-2 2.5 ng/mL) [13]	-6.84	-4.5	1.43	75.4	94
NK-92 (IL-2 2.5 ng/mL) [7]	-20.2	-17.7	8.7	44.5	64
NK-YS (IL-2 2.5 ng/mL) [11]	-8.76	-5.07	22.4	73.6	92.2
NKL (IL-2 2.5 ng/mL) [6]	-21.8	-24.6	-10.7	40.7	75.6
SNK-6 (IL-2 2.5 ng/mL) [12]	21.5	20.6	46.5	92.8	96.9
YT (IL-2 2.5 ng/mL) [5]	-2.82	-1.05	1.56	66.9	72.2
[2]	-17.2	-29.2	-19.8	36.1	78.2
[3]	-2.27	-6.47	-3.95	30.1	77.2
[9]	-8.69	0.94	1.41	28	71.1
[10]	-18.1	-3.17	-4.4	17.3	57.7
[15]	-0.51	-6.13	2.57	35.4	73
